“And” between values parts separate entries of the source, which are not always exact repeats. Identical values can stand only once.
Settings: Liquid, Flow apparatus with low residence time

CC(=O)OC(C)(C)C [1,1-dimethylethyl ethanoate]
Settings | Critical pressure [kPa] | Critical temperature [K] | vapor or sublimation pressure [kPa]
– | 3040 | 541.2 | –
472.7 K | – | – | 1053
495 K | – | – | 1527
514.5 K | – | – | 2074
533.7 K | – | – | 2722
535.7 K | – | – | 2802
535.9 K | – | – | 2801
536.4 K | – | – | 2835
537.3 K | – | – | 2868
537.7 K | – | – | 2903
538.6 K | – | – | 2949

CC(O)CCO (stereo not given) [1,3-butanediol]
Settings | Critical pressure [kPa] | Critical temperature [K] | vapor or sublimation pressure [kPa]
– | 5180 | 692.4 | –
481.4 K | – | – | 100.2
508.1 K | – | – | 209.6
537.8 K | – | – | 418.5
576 K | – | – | 898.4
614.7 K | – | – | 1719
646.7 K | – | – | 2774
662.5 K | – | – | 3462
676.7 K | – | – | 4158
688.2 K | – | – | 4840

c1cocn1 [1,3-oxazole]
Settings | Critical pressure [kPa] | Critical temperature [K] | vapor or sublimation pressure [kPa]
– | 6770 | 550.8 | –
479 K | – | – | 2424
494.6 K | – | – | 3116
514.9 K | – | – | 4146
535.5 K | – | – | 5523
547.4 K | – | – | 6492

CC(C)c1ccc(C(C)C)cc1 [1,4-diisopropylbenzene]
Settings | Critical pressure [kPa] | Critical temperature [K] | vapor or sublimation pressure
– | 2360 | 676.2 | –
518 K | – | – | 217.1 kPa
552.6 K | – | – | 416.3 kPa
596.8 K | – | – | 837.8 kPa
648.1 K | – | – | 1669 kPa and 1667 kPa
666.2 K | – | – | 2078 kPa
672.3 K | – | – | 2258 kPa
675.9 K | – | – | 2325 kPa

CC1(C)CO1 [2,2-dimethyloxirane]
Settings | Critical pressure [kPa] | Critical temperature [K] | vapor or sublimation pressure [kPa]
– | 4350 | 499.9 | –
320.1 K | – | – | 87.08
339.1 K | – | – | 165.1
365.6 K | – | – | 348.9
393.2 K | – | – | 678.4
428.2 K | – | – | 1381
469.4 K | – | – | 2760
496.4 K | – | – | 4141
499.2 K | – | – | 4306

CSSC [2,3-dithiabutane]
Settings | Critical pressure [kPa] | Critical temperature [K] | vapor or sublimation pressure [kPa]
– | 5070 | 607.8 | –
466.3 K | – | – | 690
500.8 K | – | – | 1244
533.1 K | – | – | 2002
561 K | – | – | 2897
591.4 K | – | – | 4205
604.8 K | – | – | 4902
607.2 K | – | – | 5037

NCCOCCO [2-(2-aminoethoxy)ethanol]
Settings | Critical pressure [kPa] | Critical temperature [K] | vapor or sublimation pressure [kPa]
– | 4800 | 721.2 | –
500.9 K | – | – | 117.3
526.9 K | – | – | 225.2
564.9 K | – | – | 496.6
594.2 K | – | – | 842.6
625.9 K | – | – | 1395
653.9 K | – | – | 2085
685 K | – | – | 3130
716.5 K | – | – | 4521
719.4 K | – | – | 4729

OCCCOCCCO [4-oxa-1,7-heptanediol]
Settings | Critical pressure [kPa] | Critical temperature [K] | vapor or sublimation pressure [kPa]
– | 3380 | 705.2 | –
505 K | – | – | 100.7
534.3 K | – | – | 208.2
564.2 K | – | – | 395.8
607.2 K | – | – | 854.3
649.8 K | – | – | 1631
689.9 K | – | – | 2779
699.1 K | – | – | 3123
703.4 K | – | – | 3296

CCCCSSCCCC [5,6-dithiadecane]
Settings | vapor or sublimation pressure [kPa]
504.2 K | 90.32
535.7 K | 180.3
571.7 K | 349.6
614.9 K | 695.7

O=CN1CCOCC1 [N-formylmorpholine]
Settings | Critical pressure [kPa] | Critical temperature [K] | vapor or sublimation pressure [kPa]
– | 5080 | 779.3 | –
507.5 K | – | – | 91.7
538 K | – | – | 174.8
573.2 K | – | – | 343.4
614.6 K | – | – | 688.1
663.6 K | – | – | 1379
664.7 K | – | – | 1382
723.7 K | – | – | 2761
745.2 K | – | – | 3447
762.7 K | – | – | 4137
775.2 K | – | – | 4826
777.7 K | – | – | 4999

CN(CCO)CCO [N-methyldiethanolamine]
Settings | Critical pressure [kPa] | Critical temperature [K] | vapor or sublimation pressure [kPa]
– | 4160 | 741.9 | –
519.7 K | – | – | 98.59
543.3 K | – | – | 175.1
574.8 K | – | – | 346.1
617.1 K | – | – | 743.9
657.1 K | – | – | 1389
707.5 K | – | – | 2785
728.1 K | – | – | 3475
735.4 K | – | – | 3799
738.4 K | – | – | 3985

C=CC(=O)OCCCC [butyl 2-propenoate]
Settings | Critical pressure [kPa] | Critical temperature [K] | vapor or sublimation pressure [kPa]
– | 2840 | 601.2 | –
441.9 K | – | – | 178.6
471.9 K | – | – | 351.6
506.5 K | – | – | 689.5
549.3 K | – | – | 1380
599.1 K | – | – | 2761

CCOC(=O)C(=O)OCC [diethyl ethanedioate]
Settings | Critical pressure [kPa] | Critical temperature [K] | vapor or sublimation pressure [kPa]
– | 3060 | 645.8 | –
454.6 K | – | – | 90.67
481.8 K | – | – | 182.4
512.9 K | – | – | 359.9
547.3 K | – | – | 690.9
590.1 K | – | – | 1381
638.8 K | – | – | 2761
642.5 K | – | – | 2934
644.4 K | – | – | 3013

CC(=O)OC(C)OC(C)=O [ethylidene diethanoate]
Settings | Critical pressure [kPa] | Critical temperature [K] | vapor or sublimation pressure [kPa]
– | 2970 | 618.2 | –
461.6 K | – | – | 177.6
486.4 K | – | – | 314.3
514.2 K | – | – | 555.5
541.2 K | – | – | 902.2
571.5 K | – | – | 1457
601.1 K | – | – | 2286
608.2 K | – | – | 2561
612 K | – | – | 2697

O=C=Nc1ccccc1 [phenyl isocyanate]
Settings | Critical pressure [kPa] | Critical temperature [K] | vapor or sublimation pressure [kPa]
– | 4000 | 656.9 | –
479.7 K | – | – | 278.9
553.2 K | – | – | 1038
588.3 K | – | – | 1724
618.6 K | – | – | 2551
653 K | – | – | 3795
653.1 K | – | – | 3793

O=S1(=O)CCCC1 [sulfolane]
Settings | vapor or sublimation pressure [kPa]
560.2 K | 103.6
594.4 K | 203.9
626.3 K | 350.2
656.3 K | 556.8
685.1 K | 829.2
713.2 K | 1181
742 K | 1665
773.4 K | 2363
802.7 K | 3185
829 K | 4144

O=C1CCCO1 [γ-butyrolactone]
Settings | Critical pressure [kPa] | Critical temperature [K] | vapor or sublimation pressure [kPa]
– | 5100 | 732.5 | –
474.9 K | – | – | 93.29
501.8 K | – | – | 174.7
532.5 K | – | – | 325.8
562.6 K | – | – | 558.5
600 K | – | – | 1005
639 K | – | – | 1723
673.8 K | – | – | 2643
696.7 K | – | – | 3454
713.8 K | – | – | 4147
726.8 K | – | – | 4779
730.8 K | – | – | 5013
